Data as given in patent US12568972B2, “Pyridazinol compounds and derivatives, preparation methods, herbicidal compositions and applications thereof” (Qingdao Kingagroot Chemical Compound Co., Ltd., priority 2018, dated 2026).

Assays:
Assay in all cases: Post-emergence test, weed control effect
Assay type in all cases: in vivo
Conditions in all cases: after 3 weeks
Chenopodiaceae = test system: Chenopodiaceae
Procedure, shortened: (§1)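 Scores use a 0 (no effect) to 10 (dead) scale of fresh-weight inhibition, assessed 3 weeks after spraying. Treatment was at the 2-3 leaf stage, 2-3 weeks post-sowing, using acetone/Tween-80/water solutions with 80% vegetable oil methyl ester synergist at 1500 g/ha.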

Veronica polita = test system: Veronica polita
Procedure, shortened: as §1

Amaranthus retroflexus = test system: Amaranthus retroflexus
Procedure, shortened: as §1

Rorippa indica = test system: Rorippa indica
Procedure, shortened: as §1

Oc1cc(C(F)(F)F)nnc1-c1cncc(C(F)(F)F)c1 [Compound 977]
10: weed control effect (activity level), Chenopodiaceae (Chenopodiaceae; Dose 3000 g/ha) | weed control effect (activity level), Veronica polita (Veronica polita; Dose 3000 g/ha) | weed control effect (activity level), Amaranthus retroflexus (Amaranthus retroflexus; Dose 3000 g/ha) | weed control effect (activity level), Rorippa indica (Rorippa indica; Dose 3000 g/ha)

Oc1cc(C(F)(F)F)nnc1-c1ccc2cccnc2c1 [Compound 723]
10: weed control effect (activity level), Chenopodiaceae (Chenopodiaceae; Dose 3000 g/ha) | weed control effect (activity level), Veronica polita (Veronica polita; Dose 3000 g/ha) | weed control effect (activity level), Amaranthus retroflexus (Amaranthus retroflexus; Dose 3000 g/ha) | weed control effect (activity level), Rorippa indica (Rorippa indica; Dose 3000 g/ha)

Oc1cc(C(F)(F)F)nnc1-c1cn2ncccc2n1 [Compound 570]
10: weed control effect (activity level), Chenopodiaceae (Chenopodiaceae; Dose 3000 g/ha) | weed control effect (activity level), Veronica polita (Veronica polita; Dose 3000 g/ha) | weed control effect (activity level), Amaranthus retroflexus (Amaranthus retroflexus; Dose 3000 g/ha) | weed control effect (activity level), Rorippa indica (Rorippa indica; Dose 3000 g/ha)

O=C(CC1CCCC1)Oc1cc(C(F)(F)F)nnc1-c1ccc(C(F)(F)F)cc1 [Compound 1-18]
10: weed control effect, Chenopodiaceae (activity level) (Chenopodiaceae; Dose 3000 g/ha) | weed control effect, Veronica polita (activity level) (Veronica polita; Dose 3000 g/ha) | weed control effect, Amaranthus retroflexus (activity level) (Amaranthus retroflexus; Dose 3000 g/ha) | weed control effect, Rorippa indica (activity level) (Rorippa indica; Dose 3000 g/ha)

Oc1cc(C(F)(F)F)nnc1-c1cc(F)cnc1Cl [Compound 1004]
10: weed control effect (activity level), Chenopodiaceae (Chenopodiaceae; Dose 3000 g/ha) | weed control effect (activity level), Veronica polita (Veronica polita; Dose 3000 g/ha) | weed control effect (activity level), Amaranthus retroflexus (Amaranthus retroflexus; Dose 3000 g/ha) | weed control effect (activity level), Rorippa indica (Rorippa indica; Dose 3000 g/ha)

Cc1ccc(Cl)c(-c2nnc(C(F)(F)F)cc2O)c1F [Compound 82]
10: weed control effect (activity level), Chenopodiaceae (Chenopodiaceae; dose 1000 g/ha) | weed control effect (activity level), Veronica polita (Veronica polita; dose 1000 g/ha) | weed control effect (activity level), Amaranthus retroflexus (Amaranthus retroflexus; dose 1000 g/ha) | weed control effect (activity level), Rorippa indica (Rorippa indica; dose 1000 g/ha)

CC(=O)CC(=O)Oc1cc(C(F)(F)F)nnc1-c1ccc(F)cc1 [Compound 1-76]
10: weed control effect, Chenopodiaceae (activity level) (Chenopodiaceae; Dose 3000 g/ha) | weed control effect, Veronica polita (activity level) (Veronica polita; Dose 3000 g/ha) | weed control effect, Amaranthus retroflexus (activity level) (Amaranthus retroflexus; Dose 3000 g/ha) | weed control effect, Rorippa indica (activity level) (Rorippa indica; Dose 3000 g/ha)

O=C(Oc1cc(C(F)(F)F)nnc1-c1ccc(F)cc1)N1CCOCC1 [Compound 1-68]
10: weed control effect, Chenopodiaceae (activity level) (Chenopodiaceae; Dose 3000 g/ha) | weed control effect, Veronica polita (activity level) (Veronica polita; Dose 3000 g/ha) | weed control effect, Amaranthus retroflexus (activity level) (Amaranthus retroflexus; Dose 3000 g/ha) | weed control effect, Rorippa indica (activity level) (Rorippa indica; Dose 3000 g/ha)

O=C(Oc1cc(C(F)(F)F)nnc1-c1ccc(F)cc1)N1CCCCC1 [Compound 1-67]
10: weed control effect, Chenopodiaceae (activity level) (Chenopodiaceae; Dose 3000 g/ha) | weed control effect, Veronica polita (activity level) (Veronica polita; Dose 3000 g/ha) | weed control effect, Amaranthus retroflexus (activity level) (Amaranthus retroflexus; Dose 3000 g/ha) | weed control effect, Rorippa indica (activity level) (Rorippa indica; Dose 3000 g/ha)

Oc1cc(C(F)(F)F)nnc1-c1ccc2cc[nH]c2c1 [Compound 588]
10: weed control effect (activity level), Chenopodiaceae (Chenopodiaceae; Dose 3000 g/ha) | weed control effect (activity level), Veronica polita (Veronica polita; Dose 3000 g/ha) | weed control effect (activity level), Amaranthus retroflexus (Amaranthus retroflexus; Dose 3000 g/ha) | weed control effect (activity level), Rorippa indica (Rorippa indica; Dose 3000 g/ha)

CN(C)c1cnn(C)c1-c1nnc(C(F)(F)F)cc1O [Compound 816]
10: weed control effect (activity level), Chenopodiaceae (Chenopodiaceae; Dose 3000 g/ha) | weed control effect (activity level), Veronica polita (Veronica polita; Dose 3000 g/ha) | weed control effect (activity level), Amaranthus retroflexus (Amaranthus retroflexus; Dose 3000 g/ha) | weed control effect (activity level), Rorippa indica (Rorippa indica; Dose 3000 g/ha)

Cc1cc(C)c(S(=O)(=O)Oc2cc(C(F)(F)F)nnc2-c2ccccc2)c(C)c1 [Compound 1-131]
10: weed control effect, Chenopodiaceae (activity level) (Chenopodiaceae; Dose 3000 g/ha) | weed control effect, Veronica polita (activity level) (Veronica polita; Dose 3000 g/ha) | weed control effect, Amaranthus retroflexus (activity level) (Amaranthus retroflexus; Dose 3000 g/ha) | weed control effect, Rorippa indica (activity level) (Rorippa indica; Dose 3000 g/ha)

CN1CCN(S(=O)(=O)Oc2cc(C(F)(F)F)nnc2-c2ccc(F)cc2)CC1 [Compound 1-125]
10: weed control effect, Chenopodiaceae (activity level) (Chenopodiaceae; Dose 3000 g/ha) | weed control effect, Veronica polita (activity level) (Veronica polita; Dose 3000 g/ha) | weed control effect, Amaranthus retroflexus (activity level) (Amaranthus retroflexus; Dose 3000 g/ha) | weed control effect, Rorippa indica (activity level) (Rorippa indica; Dose 3000 g/ha)

Oc1cc(C(F)(F)F)nnc1-c1c(F)ccnc1F [Compound 987]
10: weed control effect (activity level), Chenopodiaceae (Chenopodiaceae; Dose 3000 g/ha) | weed control effect (activity level), Veronica polita (Veronica polita; Dose 3000 g/ha) | weed control effect (activity level), Amaranthus retroflexus (Amaranthus retroflexus; Dose 3000 g/ha) | weed control effect (activity level), Rorippa indica (Rorippa indica; Dose 3000 g/ha)

COCC(=O)Oc1cc(C(F)(F)F)nnc1-c1ccc(F)c(F)c1 [Compound 1-71]
10: weed control effect, Chenopodiaceae (activity level) (Chenopodiaceae; Dose 3000 g/ha) | weed control effect, Veronica polita (activity level) (Veronica polita; Dose 3000 g/ha) | weed control effect, Amaranthus retroflexus (activity level) (Amaranthus retroflexus; Dose 3000 g/ha) | weed control effect, Rorippa indica (activity level) (Rorippa indica; Dose 3000 g/ha)

CC(=O)c1cccc(S(=O)(=O)Oc2cc(C(F)(F)F)nnc2-c2ccccc2)c1 [Compound 1-140]
10: weed control effect, Chenopodiaceae (activity level) (Chenopodiaceae; Dose 3000 g/ha) | weed control effect, Veronica polita (activity level) (Veronica polita; Dose 3000 g/ha) | weed control effect, Amaranthus retroflexus (activity level) (Amaranthus retroflexus; Dose 3000 g/ha) | weed control effect, Rorippa indica (activity level) (Rorippa indica; Dose 3000 g/ha)

CCC/C=N\Oc1cc(C(F)(F)F)nnc1-c1ccc(F)cc1 [Compound 1-172]
10: weed control effect, Chenopodiaceae (activity level) (Chenopodiaceae; Dose 3000 g/ha) | weed control effect, Veronica polita (activity level) (Veronica polita; Dose 3000 g/ha) | weed control effect, Amaranthus retroflexus (activity level) (Amaranthus retroflexus; Dose 3000 g/ha) | weed control effect, Rorippa indica (activity level) (Rorippa indica; Dose 3000 g/ha)

Cn1ncc(C2CC2)c1-c1nnc(C(F)(F)F)cc1O [Compound 810]
10: weed control effect (activity level), Chenopodiaceae (Chenopodiaceae; Dose 3000 g/ha) | weed control effect (activity level), Veronica polita (Veronica polita; Dose 3000 g/ha) | weed control effect (activity level), Amaranthus retroflexus (Amaranthus retroflexus; Dose 3000 g/ha) | weed control effect (activity level), Rorippa indica (Rorippa indica; Dose 3000 g/ha)
